{"source": "the NIST ThermoML archive (doi:10.1021/je700177n)", "key": {"[1]": {"test": "refractive index (Na D-line) (dimensionless); wn = mass fraction of the nth substance listed", "conditions": "333.15 K, 101 kPa, Liquid"}, "[2]": {"test": "wn = mass fraction of the nth substance listed", "conditions": "333.15 K, 101 kPa, Liquid"}}, "note": "± gives the expanded uncertainty stated by the source.", "data": [{"smiles": "O", "note": "[water] + O=C[C@H](O)[C@@H](O)[C@H](O)[C@H](O)CO", "values": [{"measurement": "refractive index", "setting": "[1]; w2 = 0", "value": "1.326 ± 0.005"}]}, {"smiles": "O=C[C@H](O)[C@@H](O)[C@H](O)[C@H](O)CO", "note": "[D-glucose] + O", "values": [{"measurement": "mass density", "setting": "[2]; w1 = 0.1", "value": "1022 ± 2", "unit": "kg/m3"}, {"measurement": "viscosity", "setting": "[2]; w1 = 0.1", "value": 29.4, "unit": "mPa·s"}, {"measurement": "mass density", "setting": "[2]; w1 = 0.2", "value": "1063 ± 3", "unit": "kg/m3"}, {"measurement": "viscosity", "setting": "[2]; w1 = 0.2", "value": 34.8, "unit": "mPa·s"}, {"measurement": "mass density", "setting": "[2]; w1 = 0.3", "value": "1109 ± 3", "unit": "kg/m3"}, {"measurement": "viscosity", "setting": "[2]; w1 = 0.3", "value": 43.8, "unit": "mPa·s"}, {"measurement": "mass density", "setting": "[2]; w1 = 0.4", "value": "1157 ± 4", "unit": "kg/m3"}, {"measurement": "viscosity", "setting": "[2]; w1 = 0.4", "value": 63, "unit": "mPa·s"}, {"measurement": "mass density", "setting": "[2]; w1 = 0.5", "value": "1207 ± 5", "unit": "kg/m3"}, {"measurement": "viscosity", "setting": "[2]; w1 = 0.5", "value": 107.1, "unit": "mPa·s"}, {"measurement": "mass density", "setting": "[2]; w1 = 0.6", "value": "1268 ± 6", "unit": "kg/m3"}, {"measurement": "viscosity", "setting": "[2]; w1 = 0.6", "value": 264.6, "unit": "mPa·s"}, {"measurement": "mass density", "setting": "[2]; w1 = 0.7", "value": "1334 ± 7", "unit": "kg/m3"}, {"measurement": "viscosity", "setting": "[2]; w1 = 0.7", "value": 409.2, "unit": "mPa·s"}, {"measurement": "mass density", "setting": "[2]; w1 = 0.8", "value": "1376 ± 8", "unit": "kg/m3"}, {"measurement": "viscosity", "setting": "[2]; w1 = 0.8", "value": 430.8, "unit": "mPa·s"}, {"measurement": "refractive index", "setting": "[1]; w1 = 0.1", "value": "1.341 ± 0.005"}, {"measurement": "refractive index", "setting": "[1]; w1 = 0.2", "value": "1.359 ± 0.005"}, {"measurement": "refractive index", "setting": "[1]; w1 = 0.3", "value": "1.375 ± 0.005"}, {"measurement": "refractive index", "setting": "[1]; w1 = 0.4", "value": "1.395 ± 0.005"}, {"measurement": "refractive index", "setting": "[1]; w1 = 0.5", "value": "1.416 ± 0.005"}, {"measurement": "refractive index", "setting": "[1]; w1 = 0.6", "value": "1.432 ± 0.005"}, {"measurement": "refractive index", "setting": "[1]; w1 = 0.7", "value": "1.455 ± 0.005"}, {"measurement": "refractive index", "setting": "[1]; w1 = 0.8", "value": "1.477 ± 0.005"}, {"measurement": "refractive index", "setting": "[1]; w1 = 0.9", "value": "1.506 ± 0.005"}]}]}
